Results published in US20230085307A1, “PYRIDAZINONE COMPOUND AND HERBICIDE” (NISSAN CHEMICAL CORPORATION, priority 2019, published 2023).

Experiments:
chickweed [1] = assay: Test Example 4: herbicidal effect by soil treatment (Table 19, symbol P); type: in vivo, common chickweed (Stellaria media); conditions: amount of applied herbicide 320 g/ha
How it was run: (§1)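 Herbicidal effect was rated 3 weeks after treatment, using the scoring criteria of an earlier test. The compound, formulated as an emulsion and diluted in water to a set herbicide amount, had been sprayed uniformly on soil over freshly sown seeds. Growth took place in a greenhouse at 25° C. to 30° C.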

oval-leafed pondweed = assay: Test Example 2: herbicidal activity, application during weed generation under submerged conditions (Table 17, symbol C); type: in vivo, oval-leafed pondweed (Monochoria vaginalis); conditions: AAH 320 g/ha; application during weed generation, submerged conditions
How it was run: (§2)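 Herbicide emulsion, diluted with water to the chosen amount, is applied onto 4 cm floodwater over alluvial soil where the weeds were co-sown and raised at 25–30° C. Application timing: 1–2 leaves. Assessment: three weeks afterwards.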

velvetleaf = assay: Test Example 5: herbicidal effect by foliage application, plastic box (Table 20, symbol M); type: in vivo, velvetleaf (Abutilon theophrasti); conditions: foliage application after 14-day growth, evaluated three weeks after application; for herbicidal effect on M: velvetleaf (evaluation grade 0-5): 320 g/ha
How it was run: (§3)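 Foliar spray test: emulsion formulation diluted in water to a set application rate, sprayed onto 14-day-old plants raised in diluvial soil at 25° C to 30° C under glass. Both herbicidal effect and crop effect rated visually three weeks later.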

blackgrass [2] = assay: Test Example 5: herbicidal effect by foliage application, plastic box (Table 20, symbol J); type: in vivo, blackgrass (Alopecurus myosuroides); conditions: foliage application after 14-day growth, evaluated three weeks after application; for herbicidal effect on J: blackgrass (evaluation grade 0-5): 320 g/ha
How it was run: as §3

Japanese bulrush = assay: Test Example 2: herbicidal activity, application during weed generation under submerged conditions (Table 17, symbol B); type: in vivo, Japanese bulrush (Schoenoplectus juncoides); conditions: AAH 320 g/ha; application during weed generation, submerged conditions
How it was run: as §2

chickweed [3] = assay: Test Example 5: herbicidal effect by foliage application, plastic box (Table 20, symbol P); type: in vivo, common chickweed (Stellaria media); conditions: foliage application after 14-day growth, evaluated three weeks after application; for herbicidal effect on P: chickweed (evaluation grade 0-5): 320 g/ha
How it was run: as §3

redroot pigweed = assay: Test Example 5: herbicidal effect by foliage application, plastic box (Table 20, symbol N); type: in vivo, redroot pigweed (Amaranthus retroflexus); conditions: foliage application after 14-day growth, evaluated three weeks after application; for herbicidal effect on N: redroot pigweed (evaluation grade 0-5): 320 g/ha
How it was run: as §3

lambsquarters = assay: Test Example 4: herbicidal effect by soil treatment (Table 19, symbol O); type: in vivo, lambsquarters (Chenopodium album); conditions: amount of applied herbicide 320 g/ha
How it was run: as §1

southern crabgrass = assay: Test Example 5: herbicidal effect by foliage application, plastic box (Table 20, symbol F); type: in vivo, southern crabgrass (Digitaria ciliaris); conditions: foliage application after 14-day growth, evaluated three weeks after application; for herbicidal effect on F: southern crabgrass (evaluation grade 0-5): 320 g/ha
How it was run: as §3

wild oat = assay: Test Example 4: herbicidal effect by soil treatment (Table 19, symbol I); type: in vivo, wild oat (Avena fatua); conditions: amount of applied herbicide 320 g/ha
How it was run: as §1

late watergrass [4] = assay: Test Example 2: herbicidal activity, application during weed generation under submerged conditions (Table 17, symbol A); type: in vivo, late watergrass (Echinochloa oryzicola); conditions: AAH 320 g/ha; application during weed generation, submerged conditions
How it was run: as §2

Italian ryegrass [5] = assay: Test Example 4: herbicidal effect by soil treatment (Table 19, symbol K); type: in vivo, Italian ryegrass (Lolium multiflorum); conditions: amount of applied herbicide 320 g/ha
How it was run: as §1

Italian ryegrass [6] = assay: Test Example 5: herbicidal effect by foliage application, plastic box (Table 20, symbol K); type: in vivo, Italian ryegrass (Lolium multiflorum); conditions: foliage application after 14-day growth, evaluated three weeks after application; for herbicidal effect on K: Italian ryegrass (evaluation grade 0-5): 320 g/ha
How it was run: as §3

persian speedwell = assay: Test Example 4: herbicidal effect by soil treatment (Table 19, symbol R); type: in vivo, Persian speedwell (Veronica persica); conditions: amount of applied herbicide 320 g/ha
How it was run: as §1

late watergrass [7] = assay: Test Example 1: herbicidal activity, application before weed generation under submerged conditions (Table 16, symbol A); type: in vivo, late watergrass (Echinochloa oryzicola); conditions: amount of applied herbicide 320 g/ha
How it was run: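 Emulsion formulation, water-diluted to set dose, was put onto the flooded surface (4 cm depth, alluvial soil) the same day weeds were sown and 2.5-leaf rice transplanted. After 3 weeks at 25-30 °C under glass, each species was rated 0 (≤5% kill) to 5 (≥90% kill).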

blackgrass [8] = assay: Test Example 4: herbicidal effect by soil treatment (Table 19, symbol J); type: in vivo, blackgrass (Alopecurus myosuroides); conditions: amount of applied herbicide 320 g/ha
How it was run: as §1

[9] = amount of applied herbicide 320 g/ha

Row | SMILES | Herbicidal effect by soil treatment, P: chickweed (chickweed [1]) | herbicidal effect rating, C: oval-leafed pondweed (oval-leafed pondweed) | herbicidal effect on M: velvetleaf (evaluation grade 0-5) (velvetleaf) | herbicidal effect on J: blackgrass (evaluation grade 0-5) (blackgrass [2]) | herbicidal effect rating, B: Japanese bulrush (Japanese bulrush) | herbicidal effect on P: chickweed (evaluation grade 0-5) (chickweed [3]) | herbicidal effect on N: redroot pigweed (evaluation grade 0-5) (redroot pigweed) | Herbicidal effect by soil treatment, O: lambsquarters (lambsquarters) | herbicidal effect on F: southern crabgrass (evaluation grade 0-5) (southern crabgrass) | Herbicidal effect by soil treatment, I: wild oat (wild oat) | herbicidal effect rating, A: late watergrass (late watergrass [4]) | Herbicidal effect by soil treatment, K: Italian ryegrass (Italian ryegrass [5]) | herbicidal effect on K: Italian ryegrass (evaluation grade 0-5) (Italian ryegrass [6]) | Herbicidal effect by soil treatment, R: persian speedwell (persian speedwell) | Herbicidal effect, A: late watergrass (late watergrass [7]) | Herbicidal effect by soil treatment, J: blackgrass (blackgrass [8]) | further results
1 | CCCC(=O)Oc1c(C)nn(C)c(=O)c1-c1c(-c2ccccc2OCC)sc2c(Cl)cccc12 [4-026] | 1 (Herbicidal rate of 5% or more and less than 20%) | 2 (Herbicidal rate of 20% or more and less than 40%) | 5 (Herbicidal rate of 90% or more (almost completely withered)) | 3 (Herbicidal rate of 40% or more and less than 70%) | 3 (Herbicidal rate of 40% or more and less than 70%) | 5 (Herbicidal rate of 90% or more (almost completely withered)) | 5 (Herbicidal rate of 90% or more (almost completely withered)) | 0 (Herbicidal rate of 5% or less (almost no effect)) | 3 (Herbicidal rate of 40% or more and less than 70%) | 0 (Herbicidal rate of 5% or less (almost no effect)) | 3 (Herbicidal rate of 40% or more and less than 70%) | 0 (Herbicidal rate of 5% or less (almost no effect)) | 1 (Herbicidal rate of 5% or more and less than 20%) | 2 (Herbicidal rate of 20% or more and less than 40%) | 5 (Herbicidal rate of 90% or more (almost completely withered)) | 0 (Herbicidal rate of 5% or less (almost no effect)) | 
2 | CCCC(=O)Oc1c(C)nn(C)c(=O)c1-c1c(-c2ccc(C#N)cc2)sc2c(Cl)cccc12 [4-032] | 3 (Herbicidal rate of 40% or more and less than 70%) | 0 (Herbicidal rate of 5% or less (almost no effect)) | 4 (Herbicidal rate of 70% or more and less than 90%) | 0 (Herbicidal rate of 5% or less (almost no effect)) | 3 (Herbicidal rate of 40% or more and less than 70%) | 5 (Herbicidal rate of 90% or more (almost completely withered)) | 5 (Herbicidal rate of 90% or more (almost completely withered)) | 0 (Herbicidal rate of 5% or less (almost no effect)) | 0 (Herbicidal rate of 5% or less (almost no effect)) | 0 (Herbicidal rate of 5% or less (almost no effect)) | 0 (Herbicidal rate of 5% or less (almost no effect)) | 0 (Herbicidal rate of 5% or less (almost no effect)) | 0 (Herbicidal rate of 5% or less (almost no effect)) | 3 (Herbicidal rate of 40% or more and less than 70%) | 0 (Herbicidal rate of 5% or less (almost no effect)) | 0 (Herbicidal rate of 5% or less (almost no effect)) | 
3 | CCCC(=O)Oc1c(C)nn(C)c(=O)c1-c1c(-c2ccc(F)cc2OCC)sc2c(Cl)cccc12 [4-036] | 2 (Herbicidal rate of 20% or more and less than 40%) | 0 (Herbicidal rate of 5% or less (almost no effect)) | 5 (Herbicidal rate of 90% or more (almost completely withered)) | 3 (Herbicidal rate of 40% or more and less than 70%) | 0 (Herbicidal rate of 5% or less (almost no effect)) | 5 (Herbicidal rate of 90% or more (almost completely withered)) | 5 (Herbicidal rate of 90% or more (almost completely withered)) | 1 (Herbicidal rate of 5% or more and less than 20%) | 4 (Herbicidal rate of 70% or more and less than 90%) | 0 (Herbicidal rate of 5% or less (almost no effect)) | 3 (Herbicidal rate of 40% or more and less than 70%) | 0 (Herbicidal rate of 5% or less (almost no effect)) | 4 (Herbicidal rate of 70% or more and less than 90%) | 2 (Herbicidal rate of 20% or more and less than 40%) | 4 (Herbicidal rate of 70% or more and less than 90%) | 0 (Herbicidal rate of 5% or less (almost no effect)) | 
4 | CCCC(=O)Oc1c(C)nn(C)c(=O)c1-c1c(-c2ccc(C(F)(F)F)cc2)sc2c(F)cccc12 [4-045] | 3 (Herbicidal rate of 40% or more and less than 70%) | 0 (Herbicidal rate of 5% or less (almost no effect)) | 4 (Herbicidal rate of 70% or more and less than 90%) | 0 (Herbicidal rate of 5% or less (almost no effect)) | 0 (Herbicidal rate of 5% or less (almost no effect)) | 5 (Herbicidal rate of 90% or more (almost completely withered)) | 4 (Herbicidal rate of 70% or more and less than 90%) | 0 (Herbicidal rate of 5% or less (almost no effect)) | 0 (Herbicidal rate of 5% or less (almost no effect)) | 0 (Herbicidal rate of 5% or less (almost no effect)) | 3 (Herbicidal rate of 40% or more and less than 70%) | 0 (Herbicidal rate of 5% or less (almost no effect)) | 5 (Herbicidal rate of 90% or more (almost completely withered)) | 3 (Herbicidal rate of 40% or more and less than 70%) | 4 (Herbicidal rate of 70% or more and less than 90%) | 0 (Herbicidal rate of 5% or less (almost no effect)) | 
5 | CCCC(=O)Oc1c(C)nn(C)c(=O)c1-c1c(-c2ccc(C#N)cc2)sc2cc(F)c(F)cc12 [5-026] |  | 0 (Herbicidal rate of 5% or less (almost no effect)) |  |  | 0 (Herbicidal rate of 5% or less (almost no effect)) |  |  |  |  |  | 2 (Herbicidal rate of 20% or more and less than 40%) |  |  |  | 3 (Herbicidal rate of 40% or more and less than 70%) |  | P: chickweed, herbicidal effect grade (chickweed [1]): 0 (Herbicidal rate of 5% or less (almost no effect)); Herbicidal effect by foliage application, M: velvetleaf (velvetleaf; [9]): 3 (Herbicidal rate of 40% or more and less than 70%); Herbicidal effect by foliage application, J: blackgrass (blackgrass [2]; [9]): 0 (Herbicidal rate of 5% or less (almost no effect)); Herbicidal effect by foliage application, P: chickweed (chickweed [3]; [9]): 5 (Herbicidal rate of 90% or more (almost completely withered)); Herbicidal effect by foliage application, N: redroot pigweed (redroot pigweed; [9]): 2 (Herbicidal rate of 20% or more and less than 40%); O: lambsquarters, herbicidal effect grade (lambsquarters): 4 (Herbicidal rate of 70% or more and less than 90%); Herbicidal effect by foliage application, F: southern crabgrass (southern crabgrass; [9]): 0 (Herbicidal rate of 5% or less (almost no effect)); I: wild oat, herbicidal effect grade (wild oat): 0 (Herbicidal rate of 5% or less (almost no effect)); K: Italian ryegrass, herbicidal effect grade (Italian ryegrass [5]): 0 (Herbicidal rate of 5% or less (almost no effect)); Herbicidal effect by foliage application, K: Italian ryegrass (Italian ryegrass [6]; [9]): 0 (Herbicidal rate of 5% or less (almost no effect)); R: persian speedwell, herbicidal effect grade (persian speedwell): 4 (Herbicidal rate of 70% or more and less than 90%); J: blackgrass, herbicidal effect grade (blackgrass [8]): 0 (Herbicidal rate of 5% or less (almost no effect))
